Experiments:
[1] = Solubility test (UV-vis calibration curves, maximum solubility); details: for solubility: organic solvent or mixture, thermodynamic from solid
[2] = Cyclic voltammetry (CV) in three-electrode cells; format: physicochemical; details: for Peak to peak potential difference (ΔEp) / Ratio of anodic peak current (Ipa) to cathodic peak current (Ipc) (Ipa/Ipc) @50 mV s^−1: 1st event (or only value); for potential shift after CV cycles: FIG. 7; for E^o′: 4 mM in 0.1 M TBATFSI/MeCN
Procedure: All electrochemical examinations were carried out using a Biologic VMP3 electrochemical workstation in an Ar-filled glove box (MOTek, negligible O2 and H2O, tested by the ketyl solution).
Cyclic voltammetry (CV) was conducted in three-electrode cells comprised of glassy carbon (GC; diameter (d)=3 mm) as the working electrode (WE), a platinum wire as the counter electrode (CE), and a leak-free Ag/AgCl as the reference electrode (RE). The GC electrodes were polished using alumina slurry before testing (ALS Co., Ltd).
After CV analysis, ferrocene (Fc, ferrocene, 98%, Sigma-Aldrich) was added to the cell to measure its redox potential, and the measured sample potential was converted to the Fc/Fc^+.

[3] = Rotating disk electrode LSV, diffusion coefficient (Levich equation); format: physicochemical
Procedure: To measure diffusion coefficient (D), rotating disk electrode (RDE; ALS Co., Ltd) measurements were conducted with the same three-electrode cells. […] Limited mass-transport provides a current plateau (iL) of redox processes, which is linearly proportional to the square root of the rotating rates (ω^1/2). The diffusion coefficient (D) was calculated by plotting IL as a function of ω^1/2 and through the Levich equation (equation S1). iL=0.620nFAD^2/3ω^1/2η^−1/6Co (equation S1)
where IL is the limiting current (A cm^−2), n is the number of electrons transferred during the redox reaction, F is the Faraday's constant (96485 C mol^−1), A is the area of the electrode (0.0707 cm^2), D is the diffusion coefficient (cm^2 […]), ω is the angular rotation rate (rad s^−1), η is the kinematic viscosity (0.00442 cm^2 s^−1, referred to 0.1 M TBAPF6/MeCN), and Co is the concentration of the sample chemical.

[4] = Electron-transfer rate from CV curves (Nicholson method); format: physicochemical
Procedure: The electron-transfer rate (k^0) was calculated from CV curves and using the Nicholson method(equation S2).
where k^o is the electron-transfer constant (cm/s), D is the diffusion coefficient estimated from the above RDE studies, R is the gas constant (8.314 J K^−1 mol^−1), T is the temperature (298 K), v is the scan rate of the CVs (mV s^−1).
The Ψ value was obtained by Kingler and Kochi relation (equation S3).
where ΔEp is the peak-to-peak potential for the corresponding reduction or oxidation event.

[5] = MeCN, Solubility (M) in MeCN, in MeCN
[6] = after 100 cycles (in parentheses)
[7] = initial, 10 mM in 0.1 M TBABF4/MeCN
[8] = 1st redox event (or the only value given), 10 mM in 0.1 M TBABF4/MeCN
[9] = 2nd redox event, 10 mM in 0.1 M TBABF4/MeCN
[10] = 1st event (single value for BTMAP-Fc), after 100 cycles (in parentheses)
[11] = 1st event (single value for BTMAP-Fc), initial
[12] = 2nd event, after 100 cycles (in parentheses)
[13] = c1, first cathodic event (single value for BTMAP-Fc, oxidation process)

Structure (SMILES)	solubility [1, 5] [M]	Peak to peak potential difference (ΔEp) [2, 6] [mV]	Ratio of anodic peak current (Ipa) to cathodic peak current (Ipc) (Ipa/Ipc) @50 mV s^−1 [2, 6]	Peak to peak potential difference (ΔEp) [2, 7] [mV]	Ratio of anodic peak current (Ipa) to cathodic peak current (Ipc) (Ipa/Ipc) @50 mV s^−1 [2, 7]	Formal potential (E^o′) [2, 8]	Formal potential (E^o′) [2, 9]	potential shift after CV cycles [2]	further results
c1ccc2sc(-c3cc[n+](CCCCC[n+]4ccc(-c5nc6ccccc6s5)cc4)cc3)nc2c1 [Di-BTP^2+·2PF6^−, 1,1′-(pentane-1,5-diyl)bis(4-(benzo[d]thiazol-2-yl)pyridin-1-ium) hexafluorophosphate]	0.1	–	–	–	–	–	–	–	–
Cc1cc(-c2nc3ccccc3s2)cc(C)[n+]1C [DiMe-BTP^+·BF4^−, 4-(benzo[d]thiazol-2-yl)-1,2,6-trimethylpyridin-1-ium tetrafluoroborate]	–	81	0.88	89	0.89	1st = −1.33 V vs. Fc/Fc^+	2nd = −1.94 V vs. Fc/Fc^+	–	cyclability in the CV profile ([2]; 100 CV cycles, FIGS. 6 and 7): excellent cyclability
CCCCCC[n+]1ccc(-c2nc3ccccc3s2)cc1 [Hex-BTP^+·BF4^−, 4-(benzo[d]thiazol-2-yl)-1-hexylpyridin-1-ium tetrafluoroborate]	0.23	124	0.99	125	0.98	1st = −1.36 V vs. Fc/Fc^+	2nd = −2.13 V vs. Fc/Fc^+	positive (+) potential shift	–
COCC[n+]1ccc(-c2nc3ccccc3s2)cc1 [MOE-BTP^+·BF4^−, 4-(benzo[d]thiazol-2-yl)-1-(2-methoxyethyl)pyridin-1-ium tetrafluoroborate]	0.1	107	0.98	104	1.00	1st = −1.24 V vs. Fc/Fc^+	2nd = −1.97 V vs. Fc/Fc^+	positive (+) potential shift	–
C[N+](C)(C)CCC[n+]1ccc(-c2nc3ccccc3s2)cc1 [TMAP-BTP^2+·2PF6^−, 4-(benzo[d]thiazol-2-yl)-1-(3-(trimethylammonio)propyl)pyridin-1-ium hexafluorophosphate]	–	–	–	–	–	–	–	–	solubility ([1]; 0.5 M TBAPF6 in MeCN, maximum solubility in electrolyte solution, 0.5 M TBAPF6/MeCN): 0.026 M; Solubility (M) MeCN ([1]; in MeCN): 0.25 M; Solubility (M) in MeCN ([1]; in MeCN): 0.25 M; maximum solubility in MeCN ([1]; in MeCN): 250 mM
C[N+](C)(C)CCC[n+]1ccc(-c2nc3ccccc3s2)cc1 [TMAP-BTP^2+·2TFSI^−, 4-(benzo[d]thiazol-2-yl)-1-(3-(trimethylammonio)propyl)pyridin-1-ium bistriflimide]	–	–	–	–	–	–	–	–	Ipa/Ipc @50 mV s^−1 [2, 10]: (0.97); ΔEp [2, 10]: (105) mV; Ipa/Ipc @50 mV s^−1 [2, 11]: 1st = 0.97; ΔEp [2, 11]: 1st = 105 mV; E^o′ ([2]; 1st redox event (single value for BTMAP-Fc)): 1st = −1.19 V vs. Fc/Fc^+; Ipa/Ipc @50 mV s^−1 [2, 12]: (1.18); ΔEp [2, 12]: (85) mV; Ipa/Ipc @50 mV s^−1 ([2]; 2nd event, initial): 2nd = 1.08; ΔEp ([2]; 2nd event, initial): 2nd = 94 mV; E^o′ ([2]; 2nd redox event): 2nd = −1.87 V vs. Fc/Fc^+; D (diffusion coefficient) [3, 13]: c1 = 1.91 X10^−6 cm^2 s^−1; D (diffusion coefficient) ([3]; c2, second cathodic event): c2 = 1.91 X10^−6 cm^2 s^−1; k^o (electron-transfer constant) [4, 13]: c1 = 0.114 cm s^−1; k^o (electron-transfer constant) ([4]; c2, second cathodic event): c2 = 0.124 cm s^−1; solubility ([1]; 0.5 M TBATFSI in MeCN, Solubility 0.5M TBATFSI/MeCN (M), electrolyte solution 0.5M TBATFSI/MeCN): 0.34 M; solubility ([1]; 0.5 M TBATFSI in MeCN, maximum solubility in electrolyte solution, 0.5 M TBATFSI/MeCN): 0.34 M; solubility ([1]; MeCN, Solubility MeCN (M), in MeCN): 0.89 M
